For this test, the target named is human LPAR1 (Homo sapiens, UniProt Q92633). Nature of the test: LPAR1 intracellular calcium mobilization assay (antagonist mode). Background: Calcium flux is commonly read through the fluorescence of an indicator in the cells.

Consider twelve compounds from patent US11548871B2, “Triazole carbamate pyridyl sulfonamides as LPA receptor antagonists and uses thereof” (Gilead Sciences, Inc., priority 2019, dated 2023).

Sequence of human LPAR1 (Q92633 whole entry): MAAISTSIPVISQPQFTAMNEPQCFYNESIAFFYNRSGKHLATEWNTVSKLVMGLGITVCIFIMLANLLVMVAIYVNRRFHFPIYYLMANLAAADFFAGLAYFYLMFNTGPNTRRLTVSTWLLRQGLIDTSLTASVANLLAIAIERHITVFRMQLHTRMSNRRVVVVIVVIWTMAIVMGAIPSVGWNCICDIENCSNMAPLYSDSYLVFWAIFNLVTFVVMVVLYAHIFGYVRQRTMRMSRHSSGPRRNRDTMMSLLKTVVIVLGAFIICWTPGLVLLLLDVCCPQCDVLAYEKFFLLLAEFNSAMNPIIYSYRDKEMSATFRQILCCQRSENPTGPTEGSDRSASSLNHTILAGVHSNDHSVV
Experimental: In vitro LPAR1 activity was measured in an intracellular calcium mobilization assay.
Prior to testing cell media were aspirated from the cells and replaced with 20 μL Calcium Dye Loading Buffer (DiscoverX Calcium NoWash^PLUS Assay Kit cat #90-0091) and 2.5 mM Probenecid (Sigma Aldrich cat #P8761, prepared fresh) in HBSS/20 mM Hepes for 60 min at 37° C.
For agonist dose curves, cells were removed from the incubator after dye loading and 10 μL HBSS/20 mM Hepes including 3× vehicle was added. Cells were incubated for 30 min at room temperature in the dark to equilibrate plate temperatures. An intermediate LPA dilution series was prepared in assay buffer to generate 4× stock. Calcium mobilization was monitored on a FLIPR Tetra (MDS, San Jose, Calif.) for 2 min and 10 μL 4×LPA in HBSS/20 mM Hepes was added to the cells 5 s into the assay.
An intermediate antagonist dilution series was prepared as 3× samples in assay buffer. After dye loading, cells were removed from the incubator and 10 μL 3× antagonist was added. Cells were incubated for 30 min at room temperature in the dark to equilibrate plate temperatures. The final vehicle (DMSO) concentration was 1%. Compound antagonist activities was measured on a FLIPR Tetra. Calcium mobilization was monitored for 2 min and 10 μL EC80 agonist in HBSS/20 mM Hepes was added to the cells 5 s into the assay. Compound activity was analyzed using CBIS data analysis suite (ChemInnovation Software, San Diego, Calif.).

With `Cc1nc(-c2nnn(CC#N)c2NC(=O)O[C@@H](c2ccccc2)C(F)F)ccc1NS(C)(=O)=O` [Compound 100, (S)-2,2-difluoro-1-phenylethyl(1-(cyanomethyl)-4-(6-methyl-5-(methylsulfonamido)pyridin-2-yl)-1H-1,2,3-triazol-5-yl)carbamate], the EC50 turned out to be 0.114 µM. With `CCc1ncccc1[C@@H](C)OC(=O)Nc1c(-c2ccc(NS(C)(=O)=O)c(C)n2)nnn1C` [Compound 151, (R)-1-(2-ethylpyridin-3-yl)ethyl (1-methyl-4-(6-methyl-5-(methylsulfonamido)pyridin-2-yl)-1H-1,2,3-triazol-5-yl)carbamate] the figure was 0.588 µM; with `Cc1nc(-c2nnn(C)c2NC(=O)O[C@H](C)c2cc(F)ccc2Cl)ccc1NS(C)(=O)=O` [Compound 60, (R)-1-(2-chloro-5-fluorophenyl)ethyl (1-methyl-4-(6-methyl-5-(methylsulfonamido)pyridin-2-yl)-1H-1,2,3-triazol-5-yl)carbamate], 0.0313 µM; with `Cc1nc(-c2nnn(C)c2NC(=O)O[C@H](C)c2scnc2Cl)ccc1NS(C)(=O)=O` [Compound 140, (R)-1-(4-chlorothiazol-5-yl)ethyl (1-methyl-4-(6-methyl-5-(methylsulfonamido)pyridin-2-yl)-1H-1,2,3-triazol-5-yl)carbamate], 0.305 µM. Next, `Cc1nc(-c2nnn(C)c2NC(=O)O[C@H](C)c2cc(F)cnc2Cl)ccc1NS(C)(=O)=O` [Compound 74, (R)-1-(2-chloro-5-fluoropyridin-3-yl)ethyl (1-methyl-4-(6-methyl-5-(methylsulfonamido)pyridin-2-yl)-1H-1,2,3-triazol-5-yl)carbamate]: 0.11 µM; `CCCC[C@@H](C)OC(=O)Nc1c(-c2ccc(NS(C)(=O)=O)c(C)n2)nnn1C` [Compound 28, (R)-hexan-2-yl (1-methyl-4-(6-methyl-5-(methylsulfonamido)pyridin-2-yl)-1H-1,2,3-triazol-5-yl)carbamate]: 0.171 µM; `Cc1nc(-c2nnn(C)c2NC(=O)O[C@H](C)c2cccc(Cl)c2F)ccc1NS(C)(=O)=O` [Compound 24, (R)-1-(3-chloro-2-fluorophenyl)ethyl (1-methyl-4-(6-methyl-5-(methylsulfonamido)pyridin-2-yl)-1H-1,2,3-triazol-5-yl)carbamate]: 0.277 µM. Take `C[C@@H](OC(=O)Nc1c(-c2ccc(NS(C)(=O)=O)cn2)nnn1C)c1csnc1Cl` [Compound 119, (R)-1-(3-chloroisothiazol-4-yl)ethyl (1-methyl-4-(5-(methylsulfonamido)pyridin-2-yl)-1H-1,2,3-triazol-5-yl)carbamate]: the EC50 turned out to be 0.0502 µM. As for `C[C@@H](OC(=O)Nc1c(-c2ccc(NS(C)(=O)=O)c(F)n2)nnn1C)c1ccccc1Cl` [Compound 5, (R)-1-(2-chlorophenyl)ethyl (4-(6-fluoro-5-(methylsulfonamido)pyridin-2-yl)-1-methyl-1H-1,2,3-triazol-5-yl)carbamate], the EC50 is 0.0343 µM. With `Cc1ncc(S(=O)(=O)Nc2ccc(-c3nnn(C)c3NC(=O)O[C@H](C)c3cccc(F)c3)nc2C)s1` [Compound 107, (R)-1-(3-fluoro-phenyl)ethyl (1-methyl-4-(6-methyl-5-((2-methylthiazole)-5-sulfonamido)pyridin-2-yl)-1H-1,2,3-triazol-5-yl)carbamate] the figure was 1.12 µM; with `Cc1nc(-c2nnn(C)c2NC(=O)O[C@@H](c2cc(F)ccc2F)C(F)F)ccc1NS(C)(=O)=O` [Compound 26, (S)-1-(2,5-difluorophenyl)-2,2-difluoroethyl (1-methyl-4-(6-methyl-5-(methylsulfonamido)pyridin-2-yl)-1H-1,2,3-triazol-5-yl)carbamate], 0.0341 µM. With `Cc1nc(-c2nnn(C)c2NC(=O)OC(C)c2cccnc2C(F)F)ccc1NS(C)(=O)=O` (stereo not drawn) [Compound 124, 1-(2-(difluoromethyl)pyridin-3-yl)ethyl (1-methyl-4-(6-methyl-5-(methylsulfonamido)pyridin-2-yl)-1H-1,2,3-triazol-5-yl)carbamate] the figure was 1.08 µM.

For orientation: EC50 means the midpoint of the concentration-response curve.
